Assay results reported in patent US20220395553A1, “CXCR4 ANTAGONIST PEPTIDES” (COHBAR, INC., priority 2019, published 2022).
Square brackets hold non-standard residues; d marks the D form. Peptide text beside a SMILES is read from it.

Legend:
[1] = test system: CXCR4/CXCL12 induced p-MEK; experiment: CXCR4/CXCL12 induced p-MEK in Jurkat cells (ELISA); assay type: cell-based, human; settings: 5 nM CXCL12, 5 min
In short: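 Jurkat cells in RPMI+GlutaMax containing 10% FBS and 1% penicillin/streptomycin, fresh or conditioned, were resuspended at 2×10^6 cells/ml and […] aliquots placed in tubes. After a 5 min stimulation they were pelleted, rinsed with HBSS and lysed with PMSF and protease/phosphatase inhibitors. Phospho-MEK1 (Ser217/221) was quantified by sandwich ELISA with absorbance read at 450 nm.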

[2] = target: T1, human CXCR4 (Homo sapiens, UniProt P61073); experiment: IC50 for inhibition of CXCR4 activation, β-Arrestin recruitment (Example 22); assay type: cell-based; parameters: host or cells: C2C12 (mouse myoblast) CXCR4 β-Arrestin PathHunter cell line
In short: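 C2C12 cells co-expressing ProLink-tagged human CXCR4 and Enzyme Acceptor-tagged β-arrestin (PathHunter). Peptides tested in 10-point, 3-fold dilutions from 1 μM (1 μM–0.05 nM). Recruitment read by chemiluminescent enzyme-fragment complementation after 90 min incubation.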

[3] = target: T1, human CXCR4; experiment: IC50 for CXCR4/CXCL12 ligand binding, HTRF format (Example 24); parameters: host or cells: HEK293 (Tag-lite CXCR4 cells, frozen aliquots, transient expression)
Protocol: Peptides were initially prepared as 1 mM stock in H2O. […] Following the manufacture's protocol, a frozen aliquot of Tag-lite CXCR4 cells was thawed and immediately seeded onto 384-well plates in TLB. […] The plates were covered in aluminum foil and left at room temperature for 3 hours. Following the 3 hour incubation period, the plates were removed from the incubator and fluorescence measured using a Cytation 1 plate reader using a HTRF filter cube ([…]; BioTek; Winooski, Vt.).

[4] = test system: Jurkat cells; experiment: CXCL12 mediated cell migration, Jurkat cells; assay type: cell-based, human; settings: 1.1 μM test article, 100 ng/ml CXCL12, 1 hour
Protocol: The assay was performed following a protocol similar to that described by Peng, et al., Mol Cancer Ther., 14480-90 (2015), incorporated herein by reference. Peptides were initially prepared as 1 mM stock in H2O and tested at a final concentration of 1.1 μM. […] Jurkat cells were resuspended in serum free media (RPMI+GlutaMax; Gibco/Thermo Fisher Scientific; Gaithersburg, Md.) containing 0.5% bovine serum albumin at density of 5×10^6 cells/ml. […] Cells (250,000 cells in 50 μl) supplemented with the appropriate treatments were seeded on to the upper chamber of a 96-well 5 μm HTS Transwell filter insert (Corning/Costar; Tewksbury, Mass.). […] Filter inserts were immediately placed on top of 96-well receiver trays and placed at 37° C. in a humidified atmosphere of 5% CO2/95% air for 1 hour. Following the 1 hour incubation period the filter inserts were carefully removed and the migration of cells across the filter into the bottom chamber (receiver wells) was determined by measuring ATP levels using Cell TiterGlo 2.0, according to manufacturer's instructions (Promega; Madison, Wis.); luminescence was measured using a Cytation 3 plate reader (BioTek; Winooski, Vt.).

[5] = target: T1, human CXCR4; experiment: CXCR4/CXCL12 binding, HTRF format, single concentration (Example 23); parameters: host or cells: HEK293 (Tag-lite CXCR4 cells, frozen aliquots, transient expression); settings: 15 nM CXCR4R fluorescent probe, 3 hours, HEK293 Tag-lite CXCR4 cells
In short: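 Tag-lite CXCR4 cells were exposed to peptide at 400 nM final with 15 nM (EC80) fluorescent CXCR4 probe for 3 h at room temperature. HTRF was read, and the 665/620 nm ratio ×10,000 measured probe bound to terbium-labelled receptor.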

T1 sequence (P61073 whole entry, the tested form may be a part): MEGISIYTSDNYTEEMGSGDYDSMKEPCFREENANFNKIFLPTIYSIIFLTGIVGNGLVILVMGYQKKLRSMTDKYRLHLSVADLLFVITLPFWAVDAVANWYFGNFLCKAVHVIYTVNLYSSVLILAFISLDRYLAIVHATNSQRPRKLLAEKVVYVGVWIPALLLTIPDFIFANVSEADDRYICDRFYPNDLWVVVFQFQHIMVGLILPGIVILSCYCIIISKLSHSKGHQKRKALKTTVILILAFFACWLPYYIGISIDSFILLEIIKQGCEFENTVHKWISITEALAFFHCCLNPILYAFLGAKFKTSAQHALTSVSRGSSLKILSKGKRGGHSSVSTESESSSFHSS

SMILES | IC50 [2] | IC50 [3] | Percent Inhibition of CXCR4/CXCL12 Binding (400 nM peptide) [5] | Percent Inhibition of CXCR4/CXCL12 Induced p-MEK (100 nM Test Article) [1] | Percent Inhibition of CXCR4/CXCL12 Induced p-MEK (1 μM Test Article) [1] | Percent Inhibition of CXCL12 Mediated Migration (1.1 μM Test Article) [4]
CC(C)C[C@H](NC(=O)[C@H](CO)NC(=O)[C@H](CO)NC(=O)[C@H](CCCNC(=N)N)NC(=O)[C@@H](NC(=O)[C@H](CO)NC(=O)[C@H](Cc1c[nH]cn1)NC(=O)[C@H](Cc1c[nH]cn1)NC(=O)[C@H](Cc1ccc(O)cc1)NC(=O)[C@H](CCCNC(=N)N)NC(=O)[C@H](CCC(=O)O)NC(=O)[C@@H](N)CC(C)C)C(C)C)C(=O)N[C@@H](CCCNC(=N)N)C(=O)N1CCC[C@H]1C(=O)N[C@@H](Cc1ccccc1)C(=O)N[C@H](C(=O)N[C@@H](CCCCN)C(=O)O)[C@@H](C)O [compound 60] (H-LERYHHSVRSSLRPFTK-OH; N-terminus and C-terminus assumed) | 4 nM | 17 nM | 60% | 34% | 82% | 33%
CC(C)C[C@H](NC(=O)[C@H](CO)NC(=O)[C@H](CO)NC(=O)[C@H](CCCNC(=N)N)NC(=O)[C@@H](NC(=O)[C@H](CO)NC(=O)[C@H](Cc1c[nH]cn1)NC(=O)[C@H](Cc1c[nH]cn1)NC(=O)[C@H](Cc1ccc(O)cc1)NC(=O)[C@H](CCCNC(=N)N)NC(=O)[C@H](CCCNC(=N)N)NC(=O)[C@@H](N)CC(C)C)C(C)C)C(=O)N[C@@H](CCCNC(=N)N)C(=O)N1CCC[C@H]1C(=O)N[C@@H](Cc1ccc(O)cc1)C(=O)N[C@H](C(=O)N[C@@H](CCCCN)C(N)=O)[C@@H](C)O [compound 16] (H-LRRYHHSVRSSLRPYTK-NH2; N-terminus assumed) | 8 nM | 573 nM | −2% | 74% | 100% | 21%
CC(C)C[C@H](NC(=O)[C@H](CO)NC(=O)[C@@H](NC(=O)[C@H](CCCNC(=N)N)NC(=O)[C@@H](NC(=O)[C@H](CO)NC(=O)[C@H](Cc1c[nH]cn1)NC(=O)[C@H](Cc1c[nH]cn1)NC(=O)[C@H](Cc1ccc(O)cc1)NC(=O)[C@H](CCCNC(=N)N)NC(=O)[C@H](CCC(=O)O)NC(=O)[C@@H](N)CC(C)C)C(C)C)[C@@H](C)O)C(=O)N[C@@H](CCCNC(=N)N)C(=O)N1CCC[C@H]1C(=O)N[C@@H](Cc1ccc(O)cc1)C(=O)N[C@H](C(=O)N[C@@H](CCCCN)C(=O)O)[C@@H](C)O [compound 73] (H-LERYHHSVRTSLRPYTK-OH; N-terminus and C-terminus assumed) | 4 nM |  | 87% | 47% | 96% | 82%
CC(C)C[C@H](NC(=O)[C@H](CO)NC(=O)[C@H](CO)NC(=O)[C@H](CCCNC(=N)N)NC(=O)[C@@H](NC(=O)[C@H](CO)NC(=O)[C@H](Cc1c[nH]cn1)NC(=O)[C@H](Cc1c[nH]cn1)NC(=O)[C@H](Cc1ccc(O)cc1)NC(=O)[C@H](CCCNC(=N)N)NC(=O)[C@H](CC(=O)O)NC(=O)[C@@H](N)CC(C)C)C(C)C)C(=O)N[C@@H](CCCNC(=N)N)C(=O)N1CCC[C@H]1C(=O)N[C@@H](Cc1ccc(O)cc1)C(=O)N[C@H](C(=O)N[C@@H](CCCCN)C(=O)O)[C@@H](C)O [compound 7] (H-LDRYHHSVRSSLRPYTK-OH; N-terminus and C-terminus assumed) |  | 5 nM | 89% | 60% | 96% | 52%

Continued by falling IC50 [2], values first:

IC50 [2] | IC50 [3] | Percent Inhibition of CXCR4/CXCL12 Binding (400 nM peptide) [5] | SMILES | Percent Inhibition of CXCR4/CXCL12 Induced p-MEK (100 nM Test Article) [1] | Percent Inhibition of CXCR4/CXCL12 Induced p-MEK (1 μM Test Article) [1] | Percent Inhibition of CXCL12 Mediated Migration (1.1 μM Test Article) [4]
3 nM | 8 nM | 87% | CC(C)C[C@H](NC(=O)[C@H](CO)NC(=O)[C@H](CO)NC(=O)[C@H](CCCNC(=N)N)NC(=O)[C@@H](NC(=O)[C@@H](NC(=O)[C@H](Cc1c[nH]cn1)NC(=O)[C@H](Cc1c[nH]cn1)NC(=O)[C@H](Cc1ccc(O)cc1)NC(=O)[C@H](CCCNC(=N)N)NC(=O)[C@H](CCC(=O)O)NC(=O)[C@@H](N)CC(C)C)[C@@H](C)O)C(C)C)C(=O)N[C@@H](CCCNC(=N)N)C(=O)N1CCC[C@H]1C(=O)N[C@@H](Cc1ccc(O)cc1)C(=O)N[C@H](C(=O)N[C@@H](CCCCN)C(=O)O)[C@@H](C)O [compound 39] (H-LERYHHTVRSSLRPYTK-OH; N-terminus and C-terminus assumed) | 38% | 95% | 77%
3 nM |  | 12% | CC(C)C[C@H](NC(=O)[C@H](CO)NC(=O)[C@H](CO)NC(=O)[C@H](CCCNC(=N)N)NC(=O)[C@@H](NC(=O)[C@H](CO)NC(=O)[C@H](Cc1c[nH]cn1)NC(=O)[C@H](Cc1c[nH]cn1)NC(=O)[C@H](Cc1ccc(O)cc1)NC(=O)[C@H](CCCNC(=N)N)NC(=O)[C@H](CCCNC(=N)N)NC(=O)[C@@H](N)CC(C)C)C(C)C)C(=O)N[C@@H](CCCNC(=N)N)C(=O)NCC(=O)N[C@@H](Cc1ccc(O)cc1)C(=O)N[C@H](C(=O)N[C@@H](CCCCN)C(=O)O)[C@@H](C)O [compound 79] (H-LRRYHHSVRSSLRGYTK-OH; N-terminus and C-terminus assumed) | 46% | 100% | 36%
3 nM | 175 nM | 12% | CC(C)C[C@H](NC(=O)[C@H](CO)NC(=O)[C@H](CO)NC(=O)[C@H](CCCNC(=N)N)NC(=O)[C@@H](NC(=O)[C@@H](NC(=O)[C@H](Cc1c[nH]cn1)NC(=O)[C@H](Cc1c[nH]cn1)NC(=O)[C@H](Cc1ccc(O)cc1)NC(=O)[C@H](CCCNC(=N)N)NC(=O)[C@H](CCCNC(=N)N)NC(=O)[C@@H](N)CC(C)C)[C@@H](C)O)C(C)C)C(=O)N[C@@H](CCCNC(=N)N)C(=O)N1CCC[C@H]1C(=O)N[C@@H](Cc1ccc(O)cc1)C(=O)N[C@H](C(=O)N[C@@H](CCCCN)C(=O)O)[C@@H](C)O [compound 38] (H-LRRYHHTVRSSLRPYTK-OH; N-terminus and C-terminus assumed) | 51% | 96% | 
3 nM |  | 86% | CC(C)C[C@H](NC(=O)[C@H](CO)NC(=O)[C@H](CO)NC(=O)[C@H](CCCNC(=N)N)NC(=O)[C@@H](C)NC(=O)[C@H](CO)NC(=O)[C@H](Cc1c[nH]cn1)NC(=O)[C@H](Cc1c[nH]cn1)NC(=O)[C@H](Cc1ccc(O)cc1)NC(=O)[C@H](CCCNC(=N)N)NC(=O)[C@H](CC(=O)O)NC(=O)[C@@H](N)CC(C)C)C(=O)N[C@@H](CCCNC(=N)N)C(=O)N1CCC[C@H]1C(=O)N[C@@H](Cc1ccc(O)cc1)C(=O)N[C@H](C(=O)N[C@@H](CCCCN)C(=O)O)[C@@H](C)O [compound 8] (H-LDRYHHS[dA]RSSLRPYTK-OH; N-terminus and C-terminus assumed) | 32% | 88% | 94%
